The record followed here is patent US20070208166A1, “Tao Kinase Modulators And Method Of Use” (Exelixis, Inc., priority 2003, published 2007).

Each structure is given as a SMILES string.

One may read the IC50 as the concentration that gives 50% inhibition.

What all share (assay type): biochemical
One test concerns the target T1, JIK (Homo sapiens, UniProt Q9H2K8).
T1 construct: 6 nM JIK (baculovirus expressed human KIAA 1361 kinase domain2-318); made in house
T1 sequence (Q9H2K8 2-318): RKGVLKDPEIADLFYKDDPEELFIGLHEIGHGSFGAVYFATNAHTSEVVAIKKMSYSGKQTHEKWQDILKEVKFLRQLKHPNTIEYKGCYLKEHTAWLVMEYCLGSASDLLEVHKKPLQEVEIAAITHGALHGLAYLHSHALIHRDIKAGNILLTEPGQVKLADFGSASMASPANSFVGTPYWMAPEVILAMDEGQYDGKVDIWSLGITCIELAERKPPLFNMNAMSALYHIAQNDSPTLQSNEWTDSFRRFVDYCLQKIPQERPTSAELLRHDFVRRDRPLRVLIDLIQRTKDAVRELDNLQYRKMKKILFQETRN
Put plainly: JIK Luciferase-Coupled Chemiluminescent Kinase assay (LCCA). Particulars: 2 μM ATP, 10 μM MBP, 6 nM JIK, 2 hours; read-out: JIK inhibition IC50. In outline: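 Baculovirus-expressed human KIAA 1361 kinase domain 2-318 at 6 nM, with 10 μM MBP and 2 μM ATP in Tris pH 7.5 with Mg/Mn, ran 2 h at ambient temperature. Remaining ATP was read by luciferase chemiluminescence. IC50 comes from a 10-concentration four-parameter fit.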

Test [1] deals with T2, KIAA 1361 (baculovirus expressed human KIAA 1361 kinase domain 2-322) (Homo sapiens, UniProt Q7L7X3).
T2 construct: human KIAA 1361 kinase domain 2-322; made in house
T2 sequence (Q7L7X3 2-322): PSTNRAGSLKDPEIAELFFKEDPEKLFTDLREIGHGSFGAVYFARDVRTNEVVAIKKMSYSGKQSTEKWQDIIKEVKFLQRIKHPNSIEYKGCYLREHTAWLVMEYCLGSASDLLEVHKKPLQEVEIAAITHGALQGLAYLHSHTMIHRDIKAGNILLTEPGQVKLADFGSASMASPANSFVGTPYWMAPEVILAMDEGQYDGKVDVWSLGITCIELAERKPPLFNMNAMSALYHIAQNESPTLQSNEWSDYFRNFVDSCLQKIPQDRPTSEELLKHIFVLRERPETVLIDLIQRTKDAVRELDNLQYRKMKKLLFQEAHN
Put plainly: KIAA 1361 Luciferase-Coupled Chemiluminescent Kinase assay (LCCA). The settings on record: 2 μM ATP, 10 μM MBP, 12 nM KIAA 1361, 2 hours; read-out: KIAA1361 inhibition IC50. In short, it runs like this: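 KIAA 1361 kinase domain 2-322 (baculovirus, 12 nM) with 2 μM ATP and 10 μM MBP in Tris pH 7.5, MgCl2, MnCl2; 2 h, ambient. Remaining ATP read by luciferase chemiluminescence; 10 concentrations, IC50 by four-parameter fit.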

Another test has as its target T3, TAO (Homo sapiens, UniProt Q9UL54).
T3 sequence (Q9UL54 1-1235): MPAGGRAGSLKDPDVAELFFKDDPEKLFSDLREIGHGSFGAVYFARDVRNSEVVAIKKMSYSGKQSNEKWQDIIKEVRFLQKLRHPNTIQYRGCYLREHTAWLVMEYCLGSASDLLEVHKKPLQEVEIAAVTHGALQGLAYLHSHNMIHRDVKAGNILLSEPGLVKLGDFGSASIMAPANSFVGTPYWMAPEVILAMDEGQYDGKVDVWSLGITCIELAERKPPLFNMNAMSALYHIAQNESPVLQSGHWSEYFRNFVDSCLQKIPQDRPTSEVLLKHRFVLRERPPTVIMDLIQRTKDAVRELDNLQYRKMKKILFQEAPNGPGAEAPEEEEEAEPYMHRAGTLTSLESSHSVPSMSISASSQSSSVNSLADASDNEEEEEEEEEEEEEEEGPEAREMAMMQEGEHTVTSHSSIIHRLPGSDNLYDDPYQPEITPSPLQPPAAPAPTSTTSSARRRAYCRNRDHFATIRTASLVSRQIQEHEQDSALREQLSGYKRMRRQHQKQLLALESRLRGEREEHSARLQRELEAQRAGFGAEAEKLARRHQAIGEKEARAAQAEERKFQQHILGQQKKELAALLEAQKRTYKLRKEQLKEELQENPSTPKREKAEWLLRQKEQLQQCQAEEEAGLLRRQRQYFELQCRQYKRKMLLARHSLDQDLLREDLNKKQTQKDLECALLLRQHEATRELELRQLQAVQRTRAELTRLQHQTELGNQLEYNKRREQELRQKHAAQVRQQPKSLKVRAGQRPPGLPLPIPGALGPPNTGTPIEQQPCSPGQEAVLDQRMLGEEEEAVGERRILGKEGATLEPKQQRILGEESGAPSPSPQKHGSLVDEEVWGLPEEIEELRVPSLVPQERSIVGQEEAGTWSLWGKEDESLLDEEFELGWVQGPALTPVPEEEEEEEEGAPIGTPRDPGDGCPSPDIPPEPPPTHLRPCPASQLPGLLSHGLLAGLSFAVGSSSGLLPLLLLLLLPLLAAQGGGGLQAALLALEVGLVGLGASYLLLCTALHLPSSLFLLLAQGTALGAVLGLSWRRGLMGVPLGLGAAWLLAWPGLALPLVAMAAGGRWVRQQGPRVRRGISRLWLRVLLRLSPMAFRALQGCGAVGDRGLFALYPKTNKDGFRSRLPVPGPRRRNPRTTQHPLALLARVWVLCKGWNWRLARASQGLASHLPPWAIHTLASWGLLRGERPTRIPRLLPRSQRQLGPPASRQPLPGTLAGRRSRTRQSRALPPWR
Put plainly: TAO Luciferase-Coupled Chemiluminescent Kinase assay (LCCA). The settings on record: 2 μM ATP, 10 μM MBP, 12 nM TAO, 2 hours; read-out: TAO inhibition IC50.

Consider `COc1ccc2nc(NC(=O)COC(=O)CC(NC(=O)c3ccccc3)c3ccccc3)sc2c1` (stereo not drawn) [Entry 37, 2-{[6-(methyloxy)-1,3-benzothiazol-2-yl]amino}-2-oxoethyl 3-phenyl-3-[(phenylcarbonyl)amino]propanoate], for which the IC50 (at JIK; in test [1]; at TAO) was below 50 nM in each case.
As for `O=C(COc1ccc(-c2nccc(-c3ccccn3)n2)cc1)NCc1ccc(Cl)c(Cl)c1` [Entry 38, N-[(3,4-dichlorophenyl)methyl]-2-{[4-(4-pyridin-2-ylpyrimidin-2-yl)phenyl]oxy]acetamide], the 50% inhibitory concentration (IC50) is below 50 nM on JIK, below 50 nM in test [1] and 50 to 500 nM at TAO.
Regarding `CCOCCCn1c(=S)[nH]c2cc(C(=O)NCC3COc4ccccc4O3)ccc2c1=O` (stereo not drawn) [Entry 39, N-(2,3-dihydro-1,4-benzodioxin-2-ylmethyl)-3-[3-(ethyloxy)propyl]-4-oxo-2-thioxo-1,2,3,4-tetrahydroquinazoline-7-carboxamide], the half-maximal inhibitory concentration (IC50) (on JIK; in test [1]; at TAO) was 50 to 500 nM in each case.
In the case of `COc1ccc2nc(NC(=O)CNC(=O)Cn3cnc4sc(C)c(C)c4c3=O)sc2c1` [Entry 40, N˜2˜-[(5,6-dimethyl-4-oxothieno[2,3-d]pyrimidin-3(4H)-yl)acetyl]-N-[6-(methyloxy)-1,3-benzothiazol-2-yl]glycinamide], the results for the 50% inhibitory concentration (IC50) (on JIK; in test [1]; on TAO) were 50 to 500 nM, 50 to 500 nM and 500 to 5000 nM, respectively.
As for `O=C(CN1CCN(S(=O)(=O)CCc2cccc3ccccc23)CC1)Nc1ccccn1` [Entry 41, 2-{4-[(2-naphthalen-1-ylethyl)sulfonyl]piperazin-1-yl)-N-pyridin-2-ylacetamide], the IC50 at JIK is below 50 nM; in test [1], below 50 nM; at TAO it was 50 to 500 nM.
As to `O=C(NCC1COc2ccccc2O1)c1ccc2c(c1)NC(=O)c1ccccc1N2` (stereo not drawn) [Entry 42, N-(2,3-dihydro-1,4-benzodioxin-2-ylmethyl)-11-oxo-10,11-dihydro-5H-dibenzo[b,e][1,4]diazepine-8-carboxamide], the values for the half-inhibitory concentration (IC50) (at JIK; in test [1]; on TAO) were below 50 nM, 50 to 500 nM and 50 to 500 nM, respectively.
Turning to `O=C(CNC(=O)c1ccc(-c2ccccc2)cc1)NC1CCCc2ccccc21` (stereo not drawn) [Entry 43, N-[2-oxo-2-(1,2,3,4-tetrahydronaphthalen-1-ylamino)ethyl]biphenyl-4-carboxamide], the IC50 (on JIK; in test [1]; on TAO) was below 50 nM each time.
Take `O=C(CNC(=O)c1ccc2ccccc2c1)NC1CCCc2ccccc21` (stereo not drawn) [Entry 44, N-[2-oxo-2-(1,2,3,4-tetrahydronaphthalen-1-ylamino)ethyl]naphthalene-2-carboxamide]: the IC50 at JIK is 500 to 5000 nM; in test [1], 500 to 5000 nM; on TAO, above 5000 nM.
On to `O=C(CNC(=O)c1ccc(OC(F)(F)F)cc1)NC1CCCc2ccccc21` (stereo not drawn) [Entry 45, N-[2-oxo-2-(1,2,3,4-tetrahydronaphthalen-1-ylamino)ethyl]-4-[(trifluoromethyl)oxy]benzamide], for which the IC50 fell in the range of 50 to 500 nM at JIK, 500 to 5000 nM in test [1] and 500 to 5000 nM at TAO.
Consider `O=C(CNC(=O)c1cnc2ccccc2c1)NC1CCCc2ccccc21` (stereo not drawn) [Entry 46, N-[2-oxo-2-(1,2,3,4-tetrahydronaphthalen-1-ylamino)ethyl]quinoline-3-carboxamide], for which the concentration for half-maximal inhibition (IC50) (on JIK; in test [1]; at TAO) was above 5000 nM in each case.
`O=C(CNC(=O)Nc1cc(C(F)(F)F)cc(C(F)(F)F)c1)NC1CCCc2ccccc21` (stereo not drawn) [Entry 47, N˜2˜-({[3,5-bis(trifluoromethyl)phenyl]amino}carbonyl)-N-(1,2,3,4-tetrahydronaphthalen-1-yl)glycinamide]: the half-maximal inhibitory concentration (IC50) (at JIK; in test [1]; on TAO) was above 5000 nM in each case.
With `CCc1cccc(NC(=O)NCC(=O)NC2CCCc3ccccc32)c1` (stereo not drawn) [Entry 48, N˜2˜-{[(3-ethylphenyl)amino]carbonyl}-N-(1,2,3,4-tetrahydronaphthalen-1-yl)glycinamide], the IC50 (on JIK; in test [1]; at TAO) was above 5000 nM in each case.
Regarding `O=C(CNC(=O)c1ccc(Oc2ccccc2)cc1)NC1CCCc2ccccc21` (stereo not drawn) [Entry 49, N-[2-oxo-2-(1,2,3,4-tetrahydronaphthalen-1-ylamino)ethyl]-4-(phenyloxy)benzamide], the concentration for half-maximal inhibition (IC50) (at JIK; in test [1]; on TAO) was 50 to 500 nM in each case.
With `O=C(CNC(=O)c1ccc(C2CCCCC2)cc1)NC1CCCc2ccccc21` (stereo not drawn) [Entry 50, 4-cyclohexyl-N-[2-oxo-2-(1,2,3,4-tetrahydronaphthalen-1-ylamino)ethyl]benzamide], the IC50 (on JIK; in test [1]; on TAO) was 50 to 500 nM throughout.
Consider `O=C(CNC(=O)c1ccc(OCc2ccccc2)cc1)NC1CCCc2ccccc21` (stereo not drawn) [Entry 51, N-[2-oxo-2-(1,2,3,4-tetrahydronaphthalen-1-ylamino)ethyl]-4-[(phenylmethyl)oxy]benzamide], for which the half-maximal inhibitory concentration (IC50) was below 50 nM on JIK, below 50 nM in test [1] and 50 to 500 nM on TAO.
As to `CCc1ccc(-c2ccc(C(=O)NCC(=O)NCc3ccccc3)cc2)cc1` [Entry 52, 4-ethyl-N-{2-oxo-2-[(phenylmethyl)amino]ethyl}biphenyl-4-carboxamide], the 50% inhibitory concentration (IC50) (on JIK; in test [1]; on TAO) was above 5000 nM in each case.
With `CCc1ccc(-c2ccc(C(=O)NCC(=O)NC3CCCCC3)cc2)cc1` [Entry 53, N-[2-(cyclohexylamino)-2-oxoethyl]-4′-ethylbiphenyl-4-carboxamide], the IC50 (on JIK; in test [1]; at TAO) was above 5000 nM throughout.
Consider `CCc1ccc(-c2ccc(C(=O)NCC(=O)NCc3ccc(Cl)c(Cl)c3)cc2)cc1` [Entry 54, N-(2-{[(3,4-dichlorophenyl)methyl]amino}-2-oxoethyl)-4′-ethylbiphenyl-4-carboxamide], for which the IC50 (at JIK; in test [1]; at TAO) was above 5000 nM in each case.
On to `O=C(CNC(=O)C(NC(=O)C(c1ccccc1)C1CCCC1)c1cccnc1)NC1CCCc2ccccc21` (stereo not drawn) [Entry 55, N˜2˜-[{[cyclopentyl(phenyl)acetyl]amino}(pyridin-3-yl)acetyt]-N-(1,2,3,4-tetrahydronaphthalen-1-yl)glycinamide], for which the half-maximal inhibitory concentration (IC50) (at JIK; in test [1]; on TAO) was above 5000 nM each time.
